Reference: publication PMC8536644, “Enigmatic mechanism of the N-vinylpyrrolidone hepatocarcinogenicity in the rat” (Archives of Toxicology, 2021)

Columns and labels:
[1] = system: polychromatic erythrocytes of rat bone marrow; conditions: in vivo; cited from earlier work
[2] = parameters: method as in ToxCast (comptox.epa.gov dashboard); conditions: ref ToxCast (comptox.epa.gov dashboard); cited from earlier work
[3] = system: CYP1A; assay: EROD assay, lung microsomes of NVP-treated rats; type: in vivo, rat; conditions: after NVP treatment; below the LOD
Description: (§1) The alkoxyresorufin dealkylase (AROD) assays were based on the method by Burke et al. ([1994]).
(§2) The frozen livers and lungs of the NVP-treated male Wistar rats were thawed and washed with isotonic (0.9%) NaCl solution. The tissues were ice-cooled homogenized (1 g tissue: 3 mL 0.25 M saccharose in 1 mM disodium EDTA, pH 7.4) and centrifuged (9000 g, 15 min, 4 °C). The supernatant fraction was centrifuged (100 000 g, 60 min, 4 °C). The resulting supernatant fraction was used for the palmitoyl-CoA-oxidase assay described further down. The pellet was taken up in 150 mM aqueous KCl solution, recentrifuged (100 000 g, 60 min, 4 °C) and the pellet taken up in 1 mL/g liver or 0.5 mL/g lung resuspension buffer (1 mM GSH, 1 mM disodium EDTA, 4 mM MgCl2, 0.1 M KH2PO4, pH 7.5 and 4% glycerol). […]
(§3) For determination of the enzyme activities in triplicates, 85 µL master mix (100 mM TrisHCl pH 7.5, 2 mM 5’AMP, 5 mM G-6-P, 10 U G-6-P-DH, 10 mM Dicumarol, 10 mM MgCl2, either 2 µM EROD or 10 µM PROD or 5 µM BROD) was added to 10 µL microsomal fraction (1 mg protein/mL). […] The activity was determined by measuring the increase of the fluorescence (excitation at 550 nm, emission at 585 nm) due to resorufin formation compared with resorufin standards, which had been prepared by dissolving tenfold concentrated solutions in DMSO, which were then diluted tenfold in 100 mM TrisHCl pH 7.5.

[4] = system: Salmonella strains; conditions: three independent tests in four Salmonella strains; ref MAK [1994]; cited from earlier work
[5] = system: rat liver cells; conditions: rats, ref BASF [2011], cited from earlier work
[6] = system: Drosophila melanogaster; conditions: ref Knaap et al. [1985]; cited from earlier work
[7] = system: palmitoyl CoA oxidase/acyl CoA oxidase; assay: Cyanide-insensitive palmitoyl-CoA oxidase assay, liver cytosol (PPARα marker); type: in vivo, rat; conditions: male rats
Description: Cyanide-insensitive palmitoyl-CoA oxidase was determined essentially according to the method by Lazarow ([1981]), specifically as follows:
Five µL of the liver cytosol (prepared as described in the preceding chapter “Aryl hydrocarbon receptor”) derived from the NVP-treated (and untreated control) male rats were mixed in a centrifugal analyzer Cobas Fara II (Hoffmann La Roche) with 250 µL reaction mixture consisting of 28.2 mL 50 mM Tris buffer pH 8.01, 150 µL 2% Triton-X-100, 300 µL 1 mM FAD, 300 µL 10 mM CoA, 150 µL 1.5% BSA, 90 µL 0.33 mM dithiothreitol, 300 µL 20 mM NAD and after homogenization 300 µL 100 mM KCN. The reaction was started by adding 5 µL of 5.03 µM palmitoyl-CoA aqueous solution. The increase of the absorption at ʎ = 334 nm due to NADH formation was determined and translated to palmitoyl-CoA oxidase U/L by the Cobas Fara II software.

[8] = system: CYP2B; assay: PROD assay, lung microsomes; type: in vivo, rat; conditions: 20 ppm
Description: as §1, §2, §3

[9] = system: rat liver; assay: Liver histology, hematoxylin–eosin staining; type: in vivo
Description: HE staining was performed essentially according to Romeis ([2010]), specifically under the following conditions:
Parts of the frozen (− 80 °C) livers from rats treated with 0, 5, 10 or 20 ppm NVP were thawed in formalin (specifically 4% formaldehyde in sodium phosphate buffer pH 7) and left therein for fixation at least 7 days. Subsequently the livers were cut into approximately 4 mm-thick slices, which were dehydrated in increasingly concentrated ethanol (70–100%), washed in xylene and then transferred into fluid paraffin. The livers were put into kassettes with the parts which were foreseen for cutting toward the bottom, the kassettes filled with paraplast (melting point 58–62 °C) and the material left for hardening. From the embedded livers 3- to 6 µm-thick slices were cut by a rotation microtome, then stretched (in a water bath at 45 °C), transferred to a slide and dried overnight at 50 °C. Subsequently the slices were stained with HE and covered with Pertex. The slices were then microscopically evaluated. Structural changes were classified into severity grades 0, 1, 2 and 3.

[10] = system: human lymphocyte cultures; parameters: method as in MAK [1994]; conditions: ref MAK [1994]; cited from earlier work
[11] = system: rat hepatocytes; parameters: method as in MAK [1994]; conditions: ref MAK [1994]; cited from earlier work

CCOS(C)(=O)=O [EMS, ethyl methanesulfonate, reference compound]
Micronuclei in PCE, historical positive controls [1]: 6.1–21.9 ‰

C=CN1CCCC1=O [NVP, N-vinylpyrrolidone]
Active in vitro assays in ToxCast [2]: 10 out of 847 | EROD activity in lung microsomes [3]: < 1.6 pmol/min/mg protein | Ames Salmonella back mutation test result [4]: negative | Concentration from which liver cell proliferation is significantly increased ([5]; inhalation for 7 days): ≥ 1 ppm | Concentration giving a significant increase of liver cell proliferation (zones 3 and 2) ([5]; inhalation for 28 days): 0.5 ppm | Sex-linked recessive lethal test result [6]: negative | Cyanide-insensitive palmitoyl CoA oxidase activity in liver cytosol ([7]; 5 ppm): 5.43 ± 0.71 nmol/min/mg protein | Cyanide-insensitive palmitoyl CoA oxidase activity in liver cytosol ([7]; 10 ppm): 5.47 ± 0.71 nmol/min/mg protein | Cyanide-insensitive palmitoyl CoA oxidase activity in liver cytosol ([7]; 20 ppm, statistically significantly reduced): 4.68 ± 0.71 nmol/min/mg protein | PROD activity in lung microsomes vs vehicle control [8]: not significantly different | Males without centrilobular hepatocellular fatty change ([9]; 5 ppm, three males examined): two of three | Animals with low-grade (grade 1) centrilobular hepatocellular fatty change ([9]; 10 ppm, males): two of three | Animals with grade 1 centrilobular hepatocellular fatty change ([9]; 20 ppm, females): one of three | Animals with grade 2 centrilobular hepatocellular fatty change ([9]; 20 ppm, females): one | Animals with high-grade (grade 3) centrilobular hepatocellular fatty change ([9]; 20 ppm, males): two of three | Chromosome aberration test result [10]: negative | Unscheduled DNA Synthesis (UDS) test result [11]: negative
